The values that follow come from patent US8927533B2, “Thio derivatives bearing lactams as potent HDAC inhibitors and their uses as medicaments” (SIGMA-TAU Industrie Farmaceutiche Riunite S.p.A., priority 2011, dated 2015).

Holding throughout (type): biochemical
One experiment deals with HDAC5 (Homo sapiens, UniProt Q9UQL6). The experiment is described as follows: HDAC enzymatic assay, HDAC5. As for the experimental part:
(§1) Each compound was dissolved in DMSO, and progressively diluted solutions were used for testing. […] Upon its deacetylation, the fluorophore was released given rise to fluorescence emission which was detected by a fluorimeter, and the IC50 values of the compounds were determined by analyzing dose-response inhibition curves.

Another experiment has as its target T1, HDAC7 (Homo sapiens, UniProt Q8WUI4).
T1 sequence (Q8WUI4 1-952): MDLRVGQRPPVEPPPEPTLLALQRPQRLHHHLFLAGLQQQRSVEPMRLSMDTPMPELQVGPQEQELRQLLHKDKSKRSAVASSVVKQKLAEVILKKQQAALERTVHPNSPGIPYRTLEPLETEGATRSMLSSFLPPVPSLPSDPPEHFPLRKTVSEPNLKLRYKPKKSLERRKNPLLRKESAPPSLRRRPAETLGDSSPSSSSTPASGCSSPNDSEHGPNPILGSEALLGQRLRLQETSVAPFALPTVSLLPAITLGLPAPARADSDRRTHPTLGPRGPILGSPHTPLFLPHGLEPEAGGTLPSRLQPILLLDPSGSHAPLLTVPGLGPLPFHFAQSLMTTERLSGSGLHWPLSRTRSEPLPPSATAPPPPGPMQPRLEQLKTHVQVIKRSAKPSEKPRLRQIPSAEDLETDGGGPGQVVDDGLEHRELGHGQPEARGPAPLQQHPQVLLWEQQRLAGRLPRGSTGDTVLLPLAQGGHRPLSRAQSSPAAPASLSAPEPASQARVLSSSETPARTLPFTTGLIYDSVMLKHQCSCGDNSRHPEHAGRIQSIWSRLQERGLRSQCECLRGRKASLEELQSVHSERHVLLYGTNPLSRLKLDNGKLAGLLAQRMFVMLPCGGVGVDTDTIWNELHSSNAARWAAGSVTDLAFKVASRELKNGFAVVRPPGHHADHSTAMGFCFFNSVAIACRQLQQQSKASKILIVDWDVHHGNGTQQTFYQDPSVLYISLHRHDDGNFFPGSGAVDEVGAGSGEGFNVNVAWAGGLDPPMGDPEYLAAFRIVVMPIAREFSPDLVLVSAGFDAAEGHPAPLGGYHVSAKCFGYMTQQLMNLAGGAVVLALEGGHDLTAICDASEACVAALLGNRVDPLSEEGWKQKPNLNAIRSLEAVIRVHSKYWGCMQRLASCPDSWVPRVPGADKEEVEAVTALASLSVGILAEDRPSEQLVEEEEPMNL
In words: HDAC enzymatic assay, HDAC7. As to the method: as §1

The next experiment concerns the target HDAC1 (Homo sapiens, UniProt Q13547). In words: HDAC enzymatic assay, HDAC1. As to the method:
as §1

A further experiment deals with T2, HDAC10 (Homo sapiens, UniProt Q969S8).
T2 sequence (Q969S8 1-669): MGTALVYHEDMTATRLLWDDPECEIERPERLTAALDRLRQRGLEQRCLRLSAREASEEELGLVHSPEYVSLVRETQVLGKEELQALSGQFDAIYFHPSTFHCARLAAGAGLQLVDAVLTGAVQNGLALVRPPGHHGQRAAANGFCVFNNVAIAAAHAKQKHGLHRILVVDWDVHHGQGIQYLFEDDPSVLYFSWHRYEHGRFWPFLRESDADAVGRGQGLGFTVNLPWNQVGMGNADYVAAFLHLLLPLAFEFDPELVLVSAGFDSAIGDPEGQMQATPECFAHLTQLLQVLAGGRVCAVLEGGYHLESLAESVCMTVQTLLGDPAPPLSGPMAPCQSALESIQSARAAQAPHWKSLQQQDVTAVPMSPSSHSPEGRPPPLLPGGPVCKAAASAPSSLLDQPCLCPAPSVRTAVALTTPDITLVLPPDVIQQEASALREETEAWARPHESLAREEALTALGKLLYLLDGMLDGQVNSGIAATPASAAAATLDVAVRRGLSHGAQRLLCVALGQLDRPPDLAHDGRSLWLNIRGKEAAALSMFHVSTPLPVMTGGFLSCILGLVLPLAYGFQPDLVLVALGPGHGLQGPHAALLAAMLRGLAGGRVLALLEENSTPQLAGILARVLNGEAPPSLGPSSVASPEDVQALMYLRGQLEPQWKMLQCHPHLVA
The experiment is described as follows: HDAC enzymatic assay, HDAC10. As to the method: as §1

The target in another experiment is HDAC2 (Homo sapiens, UniProt Q92769). The experiment is described as follows: HDAC enzymatic assay, HDAC2. As to the method: as §1
Sequence of HDAC2 (Q92769 whole entry, the tested form may be a part): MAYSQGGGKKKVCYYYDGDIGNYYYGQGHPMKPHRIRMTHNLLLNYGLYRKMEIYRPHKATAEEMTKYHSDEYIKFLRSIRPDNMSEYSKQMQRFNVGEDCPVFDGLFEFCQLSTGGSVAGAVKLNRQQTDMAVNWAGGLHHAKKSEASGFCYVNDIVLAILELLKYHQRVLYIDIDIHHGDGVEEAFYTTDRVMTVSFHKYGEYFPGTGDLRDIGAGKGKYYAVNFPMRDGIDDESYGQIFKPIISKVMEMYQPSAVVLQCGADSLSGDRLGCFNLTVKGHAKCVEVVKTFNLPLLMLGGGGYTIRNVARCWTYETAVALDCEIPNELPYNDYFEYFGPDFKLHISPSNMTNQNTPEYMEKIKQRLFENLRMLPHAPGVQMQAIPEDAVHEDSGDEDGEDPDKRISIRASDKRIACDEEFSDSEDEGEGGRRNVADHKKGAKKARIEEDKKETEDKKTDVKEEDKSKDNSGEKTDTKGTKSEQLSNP
The target in experiment [1] is T3, HDAC3 (complex of full length human HDAC3 with human NCOR2 amino acids 395-489) (Homo sapiens, UniProt O15379).
T3 construct: complex of full length human HDAC3 with a C-terminal His-tag; His-tag (C); host or cells: baculovirus expression system
T3 sequence (O15379 whole entry, the tested form may be a part): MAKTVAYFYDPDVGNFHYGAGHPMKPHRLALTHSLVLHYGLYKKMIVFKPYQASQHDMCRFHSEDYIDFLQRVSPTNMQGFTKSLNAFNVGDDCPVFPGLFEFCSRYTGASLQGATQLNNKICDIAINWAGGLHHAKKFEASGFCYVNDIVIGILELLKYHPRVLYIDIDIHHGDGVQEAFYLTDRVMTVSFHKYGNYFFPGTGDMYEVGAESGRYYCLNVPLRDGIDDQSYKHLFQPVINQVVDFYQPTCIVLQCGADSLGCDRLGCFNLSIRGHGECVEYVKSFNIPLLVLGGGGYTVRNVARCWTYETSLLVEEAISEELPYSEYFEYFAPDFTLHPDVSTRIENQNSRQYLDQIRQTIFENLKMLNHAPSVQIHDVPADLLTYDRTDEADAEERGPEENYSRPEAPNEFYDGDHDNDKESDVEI
T3 sequence (Q9Y618 395-489 partner limits assumed): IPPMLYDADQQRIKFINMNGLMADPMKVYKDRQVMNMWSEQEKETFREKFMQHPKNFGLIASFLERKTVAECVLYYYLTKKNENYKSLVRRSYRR
In words: HDAC enzymatic assay, HDAC3. As for the experimental part:
as §1

The target of another experiment is HDAC9 (Homo sapiens, UniProt Q9UKV0). In words: HDAC enzymatic assay, HDAC9. As for the experimental part: as §1
Sequence of HDAC9 (Q9UKV0 whole entry, canonical isoform): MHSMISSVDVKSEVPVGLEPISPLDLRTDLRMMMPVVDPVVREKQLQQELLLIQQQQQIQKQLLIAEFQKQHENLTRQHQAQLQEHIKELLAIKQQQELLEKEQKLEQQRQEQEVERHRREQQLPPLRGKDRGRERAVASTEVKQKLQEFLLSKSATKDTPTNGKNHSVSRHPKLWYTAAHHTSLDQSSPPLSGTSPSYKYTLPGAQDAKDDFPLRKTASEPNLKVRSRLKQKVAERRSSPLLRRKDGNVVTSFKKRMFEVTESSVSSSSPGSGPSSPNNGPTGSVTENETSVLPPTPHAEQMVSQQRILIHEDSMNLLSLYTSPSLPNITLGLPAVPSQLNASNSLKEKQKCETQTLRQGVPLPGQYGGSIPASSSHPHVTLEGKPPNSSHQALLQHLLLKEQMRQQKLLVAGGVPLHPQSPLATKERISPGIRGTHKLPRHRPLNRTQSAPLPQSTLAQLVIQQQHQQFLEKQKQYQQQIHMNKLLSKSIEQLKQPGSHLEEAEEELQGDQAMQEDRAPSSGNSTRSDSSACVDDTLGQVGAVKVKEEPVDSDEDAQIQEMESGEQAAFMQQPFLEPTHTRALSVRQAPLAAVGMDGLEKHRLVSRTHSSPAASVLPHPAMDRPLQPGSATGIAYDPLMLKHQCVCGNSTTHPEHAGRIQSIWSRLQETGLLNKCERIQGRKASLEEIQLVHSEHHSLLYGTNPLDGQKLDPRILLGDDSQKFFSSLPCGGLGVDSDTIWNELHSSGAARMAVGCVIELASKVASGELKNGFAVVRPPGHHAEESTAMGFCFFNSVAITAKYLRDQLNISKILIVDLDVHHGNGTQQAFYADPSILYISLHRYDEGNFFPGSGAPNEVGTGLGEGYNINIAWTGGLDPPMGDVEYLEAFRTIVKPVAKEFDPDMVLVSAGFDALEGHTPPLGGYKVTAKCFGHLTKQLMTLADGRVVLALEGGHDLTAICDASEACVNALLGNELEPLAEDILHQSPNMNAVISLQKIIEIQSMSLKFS
The mark [2] stands for this setting: fluorogenic tetrapeptide RHKKAc substrate 10 μM, read-out: HDAC isoforms IC50 (nM), 5.
Where [3] appears, read: fluorogenic tetrapeptide RHKKAc substrate 10 μM, read-out: HDAC isoforms IC50 (nM), 7.
[4] abbreviates: fluorogenic tetrapeptide RHKKAc substrate 10 μM, read-out: HDAC isoforms IC50 (nM), 1.
[5] abbreviates: fluorogenic tetrapeptide RHKKAc substrate 10 μM, read-out: HDAC isoforms IC50 (nM), 10.
[6] abbreviates: fluorogenic tetrapeptide RHKKAc substrate 10 μM, read-out: HDAC isoforms IC50 (nM), 2.
The mark [7] stands for this setting: fluorogenic tetrapeptide RHKKAc substrate 10 μM, read-out: HDAC isoforms IC50 (nM), 3.
Where [8] appears, read: fluorogenic tetrapeptide RHKKAc substrate 10 μM, read-out: HDAC isoforms IC50 (nM), 9.

Read-outs that look alike come from different tables or passages of the source.

Sequence of HDAC1 (Q13547 whole entry): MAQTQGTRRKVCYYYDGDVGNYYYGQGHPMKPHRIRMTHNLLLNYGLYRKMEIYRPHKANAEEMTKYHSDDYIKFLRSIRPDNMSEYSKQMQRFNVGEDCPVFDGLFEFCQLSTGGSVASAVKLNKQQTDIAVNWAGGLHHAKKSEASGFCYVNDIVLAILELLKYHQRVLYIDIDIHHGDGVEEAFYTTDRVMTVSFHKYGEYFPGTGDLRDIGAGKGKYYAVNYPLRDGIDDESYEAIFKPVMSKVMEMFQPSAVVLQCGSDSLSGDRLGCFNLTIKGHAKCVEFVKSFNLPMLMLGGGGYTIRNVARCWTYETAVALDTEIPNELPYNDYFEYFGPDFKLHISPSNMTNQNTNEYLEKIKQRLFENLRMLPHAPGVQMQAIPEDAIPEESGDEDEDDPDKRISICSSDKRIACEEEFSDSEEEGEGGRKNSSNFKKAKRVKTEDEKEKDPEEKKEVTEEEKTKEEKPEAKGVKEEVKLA
Sequence of HDAC5 (Q9UQL6 whole entry): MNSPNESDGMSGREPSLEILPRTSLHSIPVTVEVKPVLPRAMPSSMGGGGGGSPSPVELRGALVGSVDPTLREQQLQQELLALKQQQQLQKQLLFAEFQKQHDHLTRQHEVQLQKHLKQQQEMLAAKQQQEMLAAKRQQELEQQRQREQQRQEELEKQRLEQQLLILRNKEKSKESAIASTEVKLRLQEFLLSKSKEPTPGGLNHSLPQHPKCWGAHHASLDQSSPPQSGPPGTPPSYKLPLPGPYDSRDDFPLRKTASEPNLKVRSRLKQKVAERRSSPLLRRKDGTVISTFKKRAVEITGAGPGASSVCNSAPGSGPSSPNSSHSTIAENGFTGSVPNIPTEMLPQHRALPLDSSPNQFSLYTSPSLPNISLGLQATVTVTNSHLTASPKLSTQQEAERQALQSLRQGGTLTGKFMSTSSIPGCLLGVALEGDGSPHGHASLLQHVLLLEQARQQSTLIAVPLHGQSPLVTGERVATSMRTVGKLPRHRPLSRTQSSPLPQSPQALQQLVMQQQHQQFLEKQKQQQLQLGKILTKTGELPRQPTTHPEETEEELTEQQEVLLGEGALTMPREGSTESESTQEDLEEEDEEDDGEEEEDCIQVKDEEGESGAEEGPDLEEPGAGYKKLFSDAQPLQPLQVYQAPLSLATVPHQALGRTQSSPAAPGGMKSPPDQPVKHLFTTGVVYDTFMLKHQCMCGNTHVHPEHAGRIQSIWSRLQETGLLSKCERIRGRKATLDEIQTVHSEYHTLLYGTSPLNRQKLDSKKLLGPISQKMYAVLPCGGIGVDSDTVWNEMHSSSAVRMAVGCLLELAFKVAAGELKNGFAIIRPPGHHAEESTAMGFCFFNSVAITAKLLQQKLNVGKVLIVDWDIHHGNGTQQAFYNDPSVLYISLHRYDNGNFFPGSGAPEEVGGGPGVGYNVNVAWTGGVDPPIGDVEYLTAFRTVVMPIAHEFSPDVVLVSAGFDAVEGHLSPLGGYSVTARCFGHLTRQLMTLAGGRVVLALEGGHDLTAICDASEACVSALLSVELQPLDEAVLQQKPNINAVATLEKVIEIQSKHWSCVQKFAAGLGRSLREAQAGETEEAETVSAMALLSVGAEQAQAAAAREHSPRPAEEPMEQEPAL

Consider `O=C1CCC[C@@H](C(=O)N[C@@H](CCCCCS)C(=O)N2CCc3ccccc3C2)N1` [Example 32, (S)-6-Oxo-piperidine-2-carboxylic acid [(S)-1-(3,4-dihydro-1H-isoquinoline-2-carbonyl)-6-mercapto-hexyl]-amide], for which the IC50 is 100 to 500 nM on HDAC5 (setting [2]); 100 to 500 nM at HDAC7 (setting [3]); 100 to 500 nM at HDAC1 (setting [4]); 100 to 500 nM at HDAC10 (setting [5]); less than 50 nM at HDAC2 (setting [6]); 100 to 500 nM in experiment [1] (setting [7]). Also, the IC50 at HDAC9 (setting [8]) was 100 to 500 nM.

Take `O=C1CC[C@H](C(=O)N[C@@H](CCCCCS)C(=O)Nc2ccccc2)N1` [Example 33, (R)-5-Oxo-pyrrolidine-2-carboxylic acid ((S)-6-mercapto-1-phenylcarbamoyl-hexyl)amide]: the IC50 on HDAC5 (Table 2, thio (SH) vs hydroxamate (CONHOH) MBG analogues, read-out: HDAC isoforms, 5 (IC50)) was less than 50 nM; at HDAC5 (setting [2]), less than 50 nM; at HDAC7 (Table 2, thio (SH) vs hydroxamate (CONHOH) MBG analogues, read-out: HDAC isoforms, 7 (IC50)) it was less than 50 nM; at HDAC7 (setting [3]) it was less than 50 nM; at HDAC1 (Table 2, thio (SH) vs hydroxamate (CONHOH) MBG analogues, read-out: HDAC isoforms, 1 (IC50)) it was less than 50 nM; at HDAC1 (setting [4]) it was less than 50 nM. Also, the IC50 was less than 50 nM on HDAC10 (Table 2, thio (SH) vs hydroxamate (CONHOH) MBG analogues, read-out: HDAC isoforms, 10 (IC50)); less than 50 nM on HDAC10 (setting [5]); 50 to 100 nM on HDAC2 (Table 2, thio (SH) vs hydroxamate (CONHOH) MBG analogues, read-out: HDAC isoforms, 2 (IC50)); 50 to 100 nM on HDAC2 (setting [6]); less than 50 nM in experiment [1] (Table 2, thio (SH) vs hydroxamate (CONHOH) MBG analogues, read-out: HDAC isoforms, 3 (IC50)); less than 50 nM in experiment [1] (setting [7]). The IC50 at HDAC9 (Table 2, thio (SH) vs hydroxamate (CONHOH) MBG analogues, read-out: HDAC isoforms, 9 (IC50)) was less than 50 nM; at HDAC9 (setting [8]) it was less than 50 nM.

As to `Cc1cccc(CCNC(=O)[C@H](CCCCCS)NC(=O)[C@@H]2CCCC(=O)N2)c1` [Example 34, (S)-6-Oxo-piperidine-2-carboxylic acid [(S)-6-mercapto-1-(2-m-tolyl-ethylcarbamoyl)hexyl]-amide], the IC50 on HDAC5 (setting [2]) lay within 100 to 500 nM; at HDAC7 (setting [3]), 100 to 500 nM; on HDAC1 (setting [4]) it was 50 to 100 nM; at HDAC10 (setting [5]), 50 to 100 nM; at HDAC2 (setting [6]), 100 to 500 nM; in experiment [1] (setting [7]) it was 100 to 500 nM. Further, the IC50 on HDAC9 (setting [8]) is 100 to 500 nM.

`O=C1NCCC[C@H]1C(=O)N[C@@H](CCCCCS)C(=O)Nc1ccccc1` [Example 35, (R)-2-Oxo-piperidine-3-carboxylic acid ((S)-6-mercapto-1-phenylcarbamoyl-hexyl)amide]: the IC50 (on HDAC5 (setting [2]); at HDAC7 (setting [3]); on HDAC1 (setting [4]); at HDAC10 (setting [5]); on HDAC2 (setting [6]); in experiment [1] (setting [7])) was less than 50 nM in each case. In addition, the IC50 on HDAC9 (setting [8]) was less than 50 nM.

Turning to `O=C1NCCC[C@@H]1C(=O)N[C@@H](CCCCCS)C(=O)Nc1ccccc1` [Example 36, (S)-2-Oxo-piperidine-3-carboxylic acid ((S)-6-mercapto-1-phenylcarbamoyl-hexyl)amide], the IC50 on HDAC5 (setting [2]) was less than 50 nM; on HDAC7 (setting [3]), 50 to 100 nM; on HDAC1 (setting [4]), less than 50 nM; on HDAC10 (setting [5]) it was less than 50 nM; at HDAC2 (setting [6]), less than 50 nM; in experiment [1] (setting [7]), less than 50 nM. For the same molecule, the IC50 at HDAC9 (setting [8]) is less than 50 nM.

Turning to `O=C1CCC[C@H](C(=O)N[C@@H](CCCCCS)C(=O)Nc2ccccc2)N1` [Example 37, (R)-6-Oxo-piperidine-2-carboxylic acid ((S)-6-mercapto-1-phenylcarbamoyl-hexyl)amide], the IC50 was less than 50 nM on HDAC5 (setting [2]); 100 to 500 nM on HDAC7 (setting [3]); less than 50 nM at HDAC1 (setting [4]); less than 50 nM on HDAC10 (setting [5]); less than 50 nM on HDAC2 (setting [6]); less than 50 nM in experiment [1] (setting [7]). In addition, the IC50 on HDAC9 (setting [8]) was less than 50 nM.

Turning to `Cc1cccc(NC(=O)[C@H](CCCCCS)NC(=O)[C@@H]2CCCC(=O)N2)c1` [Example 38, (S)-6-Oxo-piperidine-2-carboxylic acid ((S)-6-mercapto-1-m-tolylcarbamoyl-hexyl)amide], the IC50 (on HDAC5 (setting [2]); at HDAC7 (setting [3]); at HDAC1 (setting [4]); at HDAC10 (setting [5]); on HDAC2 (setting [6]); in experiment [1] (setting [7])) was less than 50 nM each time. At HDAC9 (setting [8]), the IC50 was less than 50 nM.

Regarding `Cc1ccc(NC(=O)[C@H](CCCCCS)NC(=O)[C@@H]2CCCC(=O)N2)cc1` [Example 39, (S)-6-Oxo-piperidine-2-carboxylic acid ((S)-6-mercapto-1-p-tolylcarbamoyl-hexyl)amide], the IC50 is less than 50 nM on HDAC5 (setting [2]); less than 50 nM on HDAC7 (setting [3]); less than 50 nM at HDAC1 (setting [4]); less than 50 nM on HDAC10 (setting [5]); 50 to 100 nM at HDAC2 (setting [6]); less than 50 nM in experiment [1] (setting [7]). For the same molecule, on HDAC9 (setting [8]), the IC50 was less than 50 nM.

In the case of `CN1C(=O)CCC[C@H]1C(=O)N[C@@H](CCCCCS)C(=O)Nc1ccccc1` [Example 40, (S)-1-Methyl-6-oxo-piperidine-2-carboxylic acid ((S)-6-mercapto-1-phenylcarbamoyl-hexyl)-amide], the IC50 is less than 50 nM on HDAC5 (setting [2]); less than 50 nM on HDAC7 (setting [3]); less than 50 nM at HDAC1 (setting [4]); less than 50 nM at HDAC10 (setting [5]); 50 to 100 nM at HDAC2 (setting [6]); less than 50 nM in experiment [1] (setting [7]). Also, the IC50 at HDAC9 (setting [8]) is less than 50 nM.
